The text below walks through data of patent publication US10335446B2, “Methods of treating diseases using grape proteins” (priority 2015, dated 2019).

Where two headings read alike, the source gives them in different places. Marks after values point to notes of the source that are not given here.

Series [1] concerns MDA-MB-436 human breast cancer. The series is described as follows: Subcutaneous MDA-MB-436 human breast cancer xenograft model, tumor volume and weight. In kind it is in vivo, female BALB/c nude mice. The protocol:
The in vivo anti-tumor efficacy of KHJ, KH103, and KHGD in the subcutaneous MDA-MB-436 human breast cancer model in female BALB/c nude mice was evaluated.
The animals used were of the species Mus musculus, strain BALB/c nude, age 6-8 weeks, and female. The body weight was 18-22 g. The number of animals was 90 mice, plus spare. The animal supplier was Shanghai BK Laboratory Animal Co., LTD.
The tumor cells were routinely subcultured twice weekly by trypsin-EDTA treatment.
Each mouse was inoculated subcutaneously at the right flank with MDA-MB-436 tumor cells (1×10^7) in 0.1 ml of PBS supplemented with BD Matrigel (1:1) for tumor development. The prophylactic treatments were started 13 days before inoculation. The therapeutic treatments were started on day 9 after tumor inoculation when the average tumor size reached approximately 81 mm^3. Each group consisted of 10 tumor-bearing mice. The testing article was administrated to the mice according to the predetermined regimen as shown in the experimental design Table 21 (prophylactic) and Table 22 (therapeutic).
The major endpoint was to see if the tumor growth could be delayed or mice could be cured. Tumor size was measured twice weekly in two dimensions using a caliper, and the volume was expressed in mm^3 using the formula: V=0.5 a×b^2 where a and b are the long and short diameters of the tumor, respectively. The tumor size was then used for calculations of both T-C and T/C values. T-C was calculated with T as the time (in days) required for the mean volume of treatment group tumors to reach 600 mm^3, and C as the time (in days) for the mean volume of control group tumors to reach the same size. The T/C value (in percent) is an indication of antitumor effectiveness; T and C are the mean volumes of the treated and control groups, respectively, on a given day.
ΔTGI was calculated for each group using the formula: ΔTGI (%)=[1−(Ti−T0)/(Vi−V0)]×100; Ti is the average tumor volume of a treatment group on a given day, T0 is the average tumor volume of the treatment group on the day of treatment start, Vi is the average tumor volume of the vehicle control group on the same day with Ti, and V0 is the average tumor volume of the vehicle group on the day of treatment start.
Tumor pictures were taken and tumor weight was measured at the study termination. T/Cweight value (in percent) was calculated using the formula: T/Cweight%=Tweight/Cweight×100% where Tweight and Cweight were the mean tumor weights of the treated and vehicle control groups, respectively.
Statistical analyses of differences in tumor volume and tumor weight among the groups were conducted on the data obtained when the average tumor volume of vehicle-therapeutic group reached 2,000 mm^3 (Day 71 after inoculation).
One-way ANOVA was performed to compare tumor volume and tumor weight among groups, and when a significant F-statistics (a ratio of treatment variance to the error variance) was obtained, comparisons between groups were carried out with Dunnett t-tests.
A general note: Xenograft models place foreign cells or tissue in a host animal.

The format of series [2] is in vivo, female BALB/c nude mice. The protocol:
At the time of routine monitoring, the animals were daily checked for any effects of tumor growth and treatments on normal behavior such as mobility, food and water consumption (by looking only), body weight gain/loss (body weights were measured twice weekly), eye/hair matting and any other abnormal effect as stated in the protocol. Death and observed clinical signs were recorded on the basis of the numbers of animals within each subset.
Animal body weight was monitored regularly as an indirect measure of toxicity (FIG. 54A-B). No group lost weight as a result of test article administration, except the prophylactic KHGD Group 4 which was found with sign of emaciation and dehydration due to the 3 days' whole-day supply of KHGD.

Series [3] is described as follows: Diet-induced obesity (DIO) mice study: blood glucose, insulin, plasma lipids, body weight, food intake. In kind it is in vivo, C57BL/6J male mice. As to conditions: Atorvastatin 20 mg/kg, test articles tid po 10 mL/kg + ad libitum.

For orientation: T/C means the ratio of treated to control. For the compound `CC(=O)O[C@H]1C(=O)[C@@]2(C)[C@H]([C@H](OC(=O)c3ccccc3)[C@]3(O)C[C@H](OC(=O)[C@H](O)[C@@H](NC(=O)c4ccccc4)c4ccccc4)C(C)=C1C3(C)C)[C@]1(OC(C)=O)CO[C@@H]1C[C@@H]2O` [Paclitaxel], in series [1] (therapeutic arm, Mean ± SEM at day 71 after inoculation), the “Tumor Size at day 71” value was 637 ± 211 mm^3. Also, the “Tumor Weight at day 78” value in series [1] (therapeutic arm, Mean ± SEM at day 78 after inoculation) is 0.67 ± 0.23 g. Besides, the ΔTGI in series [1] (therapeutic arm, day 71) is given as 71%. The “T-C at 600 mm^3” value in series [1] (therapeutic arm, tumor growth delay at tumor size 600 mm^3) was 23 days. The compound further came in with a T/C in series [1] (therapeutic arm, tumor volume at day 71 vs vehicle-therapeutic) of 31%. Further, the T/Cweight in series [1] (therapeutic arm, tumor weight at day 78 vs vehicle-therapeutic) was determined as 39.6%. For the same compound, the “antitumor activity” value in series [1] (therapeutic arms) is listed as “statistically significant antitumor activity”. Besides, the “tumor growth delay at tumor size of 600 mm^3” value in series [1] (therapeutic arms, compared with the vehicle group) is on record as 23 days. Further, the T/C value in series [1] (therapeutic arms, day 71) turned out to be 31%. In series [1] (therapeutic arms, day 71 after tumor inoculation, vehicle 2,025, Paclitaxel 1.5 mg/kg, BIW×9 weeks), this compound returned a mean tumor size of 637 mm^3. The mortality result was “died on day 20 and day 63” in series [2] (Group 6, days after the start of therapeutic treatment, possibly due to drug toxicity); 2^a (D20, 63)^b in series [2] (therapeutic arm, number of animals, n=10). The “BWL > 20%” value in series [2] (mouse, in vivo) amounted to 0. Further, in series [2] (therapeutic arm), the “Subtotal mice# lost/N” value is reported as 2/10.
For `CC(C)c1c(C(=O)Nc2ccccc2)c(-c2ccccc2)c(-c2ccc(F)cc2)n1CC[C@@H](O)C[C@@H](O)CC(=O)O` [Atorvastatin], the “body weight of the DIO mice” value in series [3] is recorded as “significantly decrease”. Moreover, in series [3] (DIO mice, 0-8 weeks), the blood glucose level entry is “significantly decrease” and the insulin sensibility result is given as “significantly increase”.
